Structures can show the parent of a compound that is named as a salt. Where two headings read alike, the source gives them in different places.
Key:
[1] = biological target: T1, IRAK4 (Homo sapiens, UniProt Q9NWZ3); test: IRAK4 MSD Biochemical Assay (1 mM ATP, 2 h); details: room temperature
T1 construct: with 0.1 nM IRAK4, 1.6 μM of biotinylated peptide substrate and 10 μM ATP
T1 sequence (Q9NWZ3 1-460): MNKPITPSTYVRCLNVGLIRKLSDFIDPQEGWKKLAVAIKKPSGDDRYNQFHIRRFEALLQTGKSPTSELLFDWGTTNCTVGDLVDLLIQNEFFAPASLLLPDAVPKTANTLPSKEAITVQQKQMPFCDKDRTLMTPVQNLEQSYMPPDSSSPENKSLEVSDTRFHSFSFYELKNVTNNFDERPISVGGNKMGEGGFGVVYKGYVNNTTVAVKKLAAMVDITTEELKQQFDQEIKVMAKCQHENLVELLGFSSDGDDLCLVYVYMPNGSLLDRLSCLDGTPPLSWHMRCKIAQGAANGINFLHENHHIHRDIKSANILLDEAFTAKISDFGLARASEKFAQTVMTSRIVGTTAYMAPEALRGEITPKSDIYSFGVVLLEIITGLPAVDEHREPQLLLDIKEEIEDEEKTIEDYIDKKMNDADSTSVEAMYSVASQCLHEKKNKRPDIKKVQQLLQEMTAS
Outline: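 Run with 1 mM ATP and […] for 2 h, then quenched with EDTA, pH 8. The phosphorylated biotinylated peptide was captured on streptavidin plates and detected with anti-phospho-threonine antibody plus Sulfo-Tag secondary by MSD electrochemiluminescence.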

[2] = biological target: T2, MDR1 (P-gp) (Homo sapiens, UniProt P08183); test: MDR1-MDCK assay (efflux ratio); type: in vitro ADME; details: human, MDCK-MDR1, 1 μM compound, 120 minutes incubation; read-out: MDR1-MDCK Efflux Ratio; (B-A/A-B)
T2 construct: host or cells: MDCK cells
Outline: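 Human MDR1-transfected MDCK monolayers, cultured 7 days on transwell inserts with TEER checked, were dosed with compound at 1 μM in HBSS-HEPES. Transport was measured in both A-B and B-A directions. Efflux ratio came from the directional permeabilities, with mass balance also calculated.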

[3] = read-out: IRAK4 MSD Biochemical Assay (1 mM ATP, 2 h) IC50

T2 sequence (P08183 whole entry): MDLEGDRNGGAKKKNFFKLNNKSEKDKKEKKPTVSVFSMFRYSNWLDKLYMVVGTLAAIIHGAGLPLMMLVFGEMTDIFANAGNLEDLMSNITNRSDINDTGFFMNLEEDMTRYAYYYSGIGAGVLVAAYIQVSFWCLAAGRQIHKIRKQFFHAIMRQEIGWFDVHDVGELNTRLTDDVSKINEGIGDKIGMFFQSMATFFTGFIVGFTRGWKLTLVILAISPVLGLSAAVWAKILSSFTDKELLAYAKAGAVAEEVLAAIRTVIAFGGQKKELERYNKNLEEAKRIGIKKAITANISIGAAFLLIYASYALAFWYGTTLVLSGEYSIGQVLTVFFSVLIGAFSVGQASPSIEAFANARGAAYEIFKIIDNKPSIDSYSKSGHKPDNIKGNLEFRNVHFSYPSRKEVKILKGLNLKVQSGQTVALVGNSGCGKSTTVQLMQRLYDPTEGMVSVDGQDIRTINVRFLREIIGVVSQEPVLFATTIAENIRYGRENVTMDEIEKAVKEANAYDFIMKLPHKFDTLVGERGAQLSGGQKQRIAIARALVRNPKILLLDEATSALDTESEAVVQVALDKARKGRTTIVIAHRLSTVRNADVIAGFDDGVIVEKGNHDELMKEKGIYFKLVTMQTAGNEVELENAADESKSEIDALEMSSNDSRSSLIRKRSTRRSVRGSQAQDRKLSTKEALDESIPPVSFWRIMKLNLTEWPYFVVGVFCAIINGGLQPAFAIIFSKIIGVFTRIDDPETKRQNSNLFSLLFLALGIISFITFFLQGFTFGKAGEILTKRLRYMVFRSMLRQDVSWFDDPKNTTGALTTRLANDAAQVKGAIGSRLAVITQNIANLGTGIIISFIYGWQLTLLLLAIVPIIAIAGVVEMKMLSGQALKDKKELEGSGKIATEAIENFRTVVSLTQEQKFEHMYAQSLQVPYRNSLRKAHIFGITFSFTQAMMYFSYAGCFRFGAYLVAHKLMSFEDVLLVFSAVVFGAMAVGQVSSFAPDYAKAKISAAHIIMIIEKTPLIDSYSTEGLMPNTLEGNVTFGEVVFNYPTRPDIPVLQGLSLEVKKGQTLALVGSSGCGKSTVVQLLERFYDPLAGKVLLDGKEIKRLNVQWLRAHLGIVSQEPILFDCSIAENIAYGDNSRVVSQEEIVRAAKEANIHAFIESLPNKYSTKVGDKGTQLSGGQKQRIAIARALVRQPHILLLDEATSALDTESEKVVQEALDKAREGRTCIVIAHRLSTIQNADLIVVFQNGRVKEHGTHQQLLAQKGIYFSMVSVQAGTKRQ

Row | IC50 [1, 3] [nM] | efflux ratio at 120 min, 1 μM [2] | Structure (SMILES) | IC50 ([1]; IRAK4 MSD Biochemical Assay (1 mM ATP, 2 h) IC50 (nM)) [nM]
1 | 187 | 1.1 | COc1cc2nn(C3CCOCC3)cc2cc1C(=O)Nc1ccccn1.O=C(O)C(F)(F)F [Example 6, 6-Methoxy-N-(pyridin-2-yl)-2-(tetrahydro-2H-pyran-4-yl)-2H-indazole-5-carboxamide trifluoroacetate] | 
2 | 1.8 | 3.1 | CC(C)Oc1cc2nn(CC3CCOC3)cc2cc1C(=O)Nc1cnn2cccnc12 (stereo not shown) [Example 39, 6-Isopropoxy-N-(pyrazolo[1,5-a]pyrimidin-3-yl)-2-((tetrahydrofuran-3-yl)methyl)-2H-indazole-5-carboxamide] | 
3 | 4.4 | 0.4 | COCCn1cc2cc(C(=O)Nc3cccc(C(F)F)n3)c(OC(C)C)cc2n1.Cl [Example 28, N-(6-(difluoromethyl)pyridin-2-yl)-6-isopropoxy-2-(2-methoxyethyl)-2H-indazole-5-carboxamide hydrochloride] | 
4 | 2.4 | 0.7 | COc1cc2nn(C34COC(C)(C3)C4)cc2cc1C(=O)Nc1cccc(C(F)F)n1 [Example 87, N-(6-(difluoromethyl)pyridin-2-yl)-6-methoxy-2-(1-methyl-2-oxabicyclo[2.1.1]hexan-4-yl)-2H-indazole-5-carboxamide trifluoroacetate] | 
5 | 1 | 1 | CC(C)Oc1nc2nn(C[C@@H]3CCOC3)cc2cc1C(=O)Nc1cccc2ccnn12 (single isomer, unassigned) [Example 52] | 
6 | 275 | 0.6 | O=C(Nc1cccc(C(F)F)n1)c1cc2cn(CC3CCOC3)nc2cn1 (stereo not shown) [Example 8, N-(6-(difluoromethyl)pyridin-2-yl)-2-((tetrahydrofuran-3-yl)methyl)-2H-pyrazolo[3,4-c]pyridine-5-carboxamide Trifluoroacetate] | 
7 | 0.5 | 1.4 | CC(C)Oc1cc2nn([C@@]34CC[C@@](C)(C3)OC4)cc2cc1C(=O)Nc1cnn2cccnc12 (single isomer, unassigned) [Example 128] | 
8 | 1.3 | 1.4 | Cc1cnc2c(NC(=O)c3cc4cn(C56COC(C)(C5)C6)nc4cc3OC(C)C)cnn2c1 [Example 94, 6-Isopropoxy-2-(1-methyl-2-oxabicyclo[2.1.1]hexan-4-yl)-N-(6-methylpyrazolo[1,5-a]pyrimidin-3-yl)-2H-indazole-5-carboxamide] | 
9 | 1.5 | 4.8 | Cc1cnc2c(NC(=O)c3cc4cn(C[C@@H]5CCOC5)nc4nc3OC(C)C)cnn2c1 (single isomer, unassigned) [Example 105] | 
10 | 7.1 | 0.9 | COc1cc2nn(C[C@H]3CCOC3)cc2cc1C(=O)Nc1cccc(C(F)F)n1 (single isomer, unassigned) [Example 18] | 
11 | 2 | 1.4 | Cl.O=C(Nc1cccc(C(F)F)n1)c1cc2cn(C3CCOCC3)nc2cc1OCC1CC(F)(F)C1 [Example 49, 6-((3,3-Difluorocyclobutyl)methoxy)-N-(6-(difluoromethyl)pyridin-2-yl)-2-(tetrahydro-2H-pyran-4-yl)-2H-indazole-5-carboxamide Hydrochloride] | 
12 | 21 | 0.6 | COc1cccc(NC(=O)c2cc3cn(C4CCOCC4)nc3cc2OC)n1.O=C(O)C(F)(F)F [Example 5, 6-Methoxy-N-(6-methoxypyridin-2-yl)-2-(tetrahydro-2H-pyran-4-yl)-2H-indazole-5-carboxamide trifluoroacetate] | 
13 | 1 | 14.2 | CC(C)Oc1cc2nn(CCC(C)(C)O)cc2cc1C(=O)Nc1cnn2cccnc12 [Example 34, 2-(3-Hydroxy-3-methylbutyl)-6-isopropoxy-N-(pyrazolo[1,5-a]pyrimidin-3-yl)-2H-indazole-5-carboxamide] | 
14 | 0.5 | 2.2 | CC(C)Oc1nc2nn(C3CCCOC3)cc2cc1C(=O)Nc1cnn2cccnc12 (stereo not shown) [Example 36, 6-Isopropoxy-N-(pyrazolo[1,5-a]pyrimidin-3-yl)-2-(tetrahydro-2H-pyran-3-yl)-2H-pyrazolo[3,4-b]pyridine-5-carboxamide] | 
15 | 1.2 | 2.6 | CC(C)Oc1nc2nn(C3CCOCC3)cc2cc1C(=O)Nc1cnn2cccnc12 [Example 82, 6-Isopropoxy-N-(pyrazolo[1,5-a]pyrimidin-3-yl)-2-(tetrahydro-2H-pyran-4-yl)-2H-pyrazolo[3,4-b]pyridine-5-carboxamide] | 
16 | 0.4 | 0.9 | CC(C)Oc1cc2nn([C@H]3CCCOC3)cc2cc1C(=O)Nc1cccc(C(F)F)n1 (single isomer, unassigned) [Example 42] | 
17 | 0.4 | 0.5 | CC(C)Oc1cc2nn([C@]34CC[C@](C)(C3)OC4)cc2cc1C(=O)Nc1cccc(C(F)F)n1 (single isomer, unassigned) [Example 125] | 
18 | 0.8 | 2.1 | CC(C)Oc1cc2nn(C3CCOCC3)cc2cc1C(=O)Nc1cnn2cccnc12 [Example 72, 6-Isopropoxy-N-(pyrazolo[1,5-a]pyrimidin-3-yl)-2-(tetrahydro-2H-pyran-4-yl)-2H-indazole-5-carboxamide] | 
19 | 2.1 | 1 | CC(C)Oc1cc2nn([C@@H]3CCOC3)cc2cc1C(=O)Nc1cccc(C(F)F)n1 (single isomer, unassigned) [Example 45] | 
20 | 1 | 2.3 | Cn1cccc(NC(=O)c2cc3cn(C[C@@H]4CCOC4)nc3nc2OC2CCCC2)c1=O (single isomer, unassigned) [Example 115] | 
21 | 6.3 | 0.7 | COc1cc2nn(C3CCOCC3)cc2cc1C(=O)Nc1cccc(C(F)F)n1.Cl [Example 24, N-(6-(difluoromethyl)pyridin-2-yl)-6-methoxy-2-(tetrahydro-2H-pyran-4-yl)-2H-indazole-5-carboxamide Hydrochloride] | 
22 | 1 | 1 | COc1ncccc1NC(=O)c1cc2cn(C3CCOCC3)nc2cc1OC(C)C [Example 69, 6-Isopropoxy-N-(2-methoxypyridin-3-yl)-2-(tetrahydro-2H-pyran-4-yl)-2H-indazole-5-carboxamide] | 
23 | 51.3 | 0.8 | COc1cccc(NC(=O)c2cc3cn(C[C@H]4CCOC4)nc3cc2OC)n1 (single isomer, unassigned) [Example 23] | 
24 | 3.2 | 0.3 | CC(C)Oc1cc2nn(C)cc2cc1C(=O)Nc1cccc(C(F)F)n1 [Example 41, N-(6-(difluoromethyl)pyridin-2-yl)-6-isopropoxy-2-methyl-2H-indazole-5-carboxamide] | 

Row | Structure (SMILES) | IC50 [1, 3] [nM] | efflux ratio at 120 min, 1 μM [2] | IC50 ([1]; IRAK4 MSD Biochemical Assay (1 mM ATP, 2 h) IC50 (nM)) [nM]
25 | CC(C)Oc1nc2nn(CC3CCOC3)cc2cc1C(=O)Nc1cnn2cccnc12 (stereo not shown) [Example 54, 6-Isopropoxy-N-(pyrazolo[1,5-a]pyrimidin-3-yl)-2-((tetrahydrofuran-3-yl)methyl)-2H-pyrazolo[3,4-b]pyridine-5-carboxamide] |  | 3.6 | 1.3
26 | Cn1cccc(NC(=O)c2cc3cn(C45COC(C)(C4)C5)nc3cc2OC2CCC2)c1=O [Example 83, 6-Cyclobutoxy-N-(1-methyl-2-oxo-1,2-dihydropyridin-3-yl)-2-(1-methyl-2-oxabicyclo[2.1.1]hexan-4-yl)-2H-indazole-5-carboxamide trifluoroacetate] | 1.4 | 1.2 | 

Source: US20230002361A1, “2H-INDAZOLE DERIVATIVES AND THEIR USE IN THE TREATMENT OF DISEASE” (BIOGEN MA INC., priority 2019, published 2023)
